Like-named read-outs stand apart in the source and are kept apart here. Where only a bound is given, the exact number is not on record here.

In data set [1] the test system is leukotriene D4-induced contraction of guinea pig terminal ileum. The data set can be described thus: Inhibition of contractions of guinea pig terminal ileum induced with leukotriene D4. More on the design: species or system guinea pig (male Hartly). The following applies: 1 nM LTD4; 2 min incubation; indomethacin 3 μM, atropin 0.3 μM; 37° C. How it is done:
The inhibition of contractions of guinea pig terminal ileum induced with leukotriene D4.
Segments of male Hartly guinea pig terminal ileus were mounted under 750 mg tension in a 10 ml organ bath containing a Tyrode solution. To eliminate instrinsic prostaglandin and cholinergic responses, indomethacin (3 μM) and atropin (0.3 μM) were incorporated into bathing solution under continuous aeration at 37° C. […] measurements were made with an isotonic transducer and recorded on a multipen-recorder. After an equilibration period of 30-60 minutes, isotonic responses were 1 nm LTD4 were recorded until reproducible responses obtained. The submaximal contraction induced by 1 nM LTD4 served as control. Test compounds were dissolved in ethanol (0.1% final concentration) and incubated at various concentrations for 2 minutes before contractions were induced with 1 nM LTD4. The inhibition of contraction was calculated relative to the preceding control contraction. The inhibitory concentration (IC50, g/ml) were calculated graphically.

In data set [2] the test system is bronchoconstriction in guinea pigs induced with leukotriene D4. In words: Bronchoconstriction in guinea pigs induced with leukotriene D4. It is filed as in vivo, guinea pig (female Hartley). To be noted: Cavia porcellus. The method, then:
Actions of bronchoconstriction in guinea pigs induced with leukotriene D4.
Resistance to lung inflation was measured by the overflow method of Konzett and Rossler (Naunyn Schmiedebergs Arch. Exp. pathol. Pharmakol., 195, 71-74, 1940), modified by the use of an air pressure transducer. Female Hartley guinea pigs (350-450 g) were anesthetized with urethane (1.5 g/kg, i.p.). An endotracheal tube was inserted in the trachea and connected to an air pump (Matsushita Denko Co., Ltd.) with an exhaust relay of 50 strokes/minutes (PK-0305-NC, Takasago Electric, Inc.). The animals were artificially ventilated at a constant volume (3-4 ml). Tracheal pressure was recorded with a side-arm of the cannula connected to a pressure transducer (MFP-1, Nihon Kohden Kogyo Co., Ltd.). Test compounds or vehicles were administered i.v. (0.03 ml/100 g) 5 minutes or p.o. (0.5 ml/100 g) 1 hour prior to the intraveneous injection of LT04 (1 μg/kg). All compounds were injected through the cannulated jugular vein. The peak bronchoconstriction of each animal was determined as the percentage of the maximal pressure obtained by clamping off the trachea at the end of each experiment.
The inhibitory effect of the test compounds were expressed as follows: % of inhibition=(1-T/C)×100 wherein T and C are the average peak bronchoconstrictions for the compounds of the present invention and the vehicle, respectively.
The 50% effective doses (ED50, mg/kg) were calculated graphically.

A short description of the next data set: Acute toxicity. The following applies: mouse, in vivo, single administration, after 10 days, Litchfield-Wilcoxon. How it is done: EXPERIMENT EXAMPLE 3: ACUTE TOXICITY
The compound of Example 1 of the present invention was intraveneously (iv) or orally (po) administered to a group of male ddy mice once. After 10 days, the LD50 values were determined by the Litchfield-Wilcoxon method.

Where [3] appears, read: 5 min, iv, 5 minutes prior to LTD4 (1 μg/kg i.v.), read-out: Action of Bronchoconstriction in guinea pigs induced with LTD4 [ED50 (mg/kg)] iv.
Where [4] appears, read: po, 1 hour prior to LTD4 (1 μg/kg i.v.), read-out: Action of Bronchoconstriction in guinea pigs induced with LTD4 [ED50 (mg/kg)] po.

With `CCC(CC)(CC(=O)Nc1cccc(/C=C/c2cccc(COCCCCc3ccc(C(C)C)cc3)n2)c1)C(=O)O` [Compound F, 2-[(E)-2-(3-(3-carboxy-3-ethylvalerylamino)phenyl)ethenyl]-6-[4-(4-isopropylphenyl)butoxy]methylpyridine], the “The inhibition of contractions of guinea pig terminal ileum induces with LTD4 [IC50 (g/ml)]” value (“The inhibition” below) in data set [1] worked out at 4e-10 g/mL. Further, the ED50 was found to be 0.014 mg/kg in data set [2] (setting [3]) and 2.2 mg/kg in data set [2] (setting [4]).

For `CCc1ccc(CCCCOCc2cccc(/C=C/c3cccc(NC(=O)CC(CC)(CC)C(=O)O)c3)n2)cc1` [Compound D, 2-[(E)-2-(3-(3-carboxy-3-ethylvalerylamino)phenyl)ethenyl]-6-[4-(4-ethylphenyl)butoxy]methylpyridine], the “The inhibition” value in data set [1] amounted to 6.6e-11 g/mL. Moreover, the ED50 in data set [2] (setting [3]) was found to be 0.0023 mg/kg; in data set [2] (setting [4]), 1 mg/kg.

As to `CCCOc1ccc(CCCCOCc2cccc(/C=C/c3cccc(NC(=O)CC(CC)(CC)C(=O)O)c3)n2)cc1` [Compound I, 2-[(E)-2-(3-(3-carboxy-3-ethylvalerylamino)phenyl)ethenyl]-6-[4-(4-propoxyphenyl)butoxy]methylpyridine], the “The inhibition” value in data set [1] stood at 7.6e-11 g/mL. The ED50 was found to be 0.0023 mg/kg in data set [2] (setting [3]) and 2.5 mg/kg in data set [2] (setting [4]).

For the compound `CCOc1ccc(CCCCOCc2cccc(/C=C/c3cccc(NC(=O)CC(CC)(CC)C(=O)O)c3)n2)cc1` [Compound H, 2-[(E)-2-(3-(3-carboxy-3-ethylvalerylamino)phenyl)ethenyl]-6-[4-(4-ethoxyphenyl)butoxy]methylpyridine], the “The inhibition” value in data set [1] was determined as 1.8e-10 g/mL. The ED50 worked out at 0.01 mg/kg in data set [2] (setting [3]) and 2 mg/kg in data set [2] (setting [4]).

For the compound `CCC(CC)(CC(=O)Nc1cccc(/C=C/c2cccc(COCCCCc3ccc(C)cc3)n2)c1)C(=O)O` [Example 1, 2-[(E)-2-(3-(3-carboxy-3-ethylvalerylamino)phenyl)ethenyl]-6-[4-(4-methylphenyl)butoxy]methylpyridine], the LD50 at 240 h is over 300 mg/kg in “Acute toxicity” (iv, read-out: LD50 (mg/kg), iv) and over 1000 mg/kg in the data set “Acute toxicity” (po, read-out: LD50 (mg/kg), po).

Consider `CCCc1c(OCCCCc2nnn[nH]2)ccc(C(C)=O)c1O` [Compound L, 1-[2-hydroxy-3-propyl-4-(4-(1H-tetrazol-5-yl)butoxy)phenyl]ethanone, reference compound], for which the “The inhibition” value in data set [1] stood at 2.5e-08 g/mL. Besides, the ED50 in data set [2] (setting [3]) was found to be 0.28 mg/kg; in data set [2] (setting [4]), 22 mg/kg.

As to `CCCCc1ccc(CCCCOCc2cccc(/C=C/c3cccc(NC(=O)CC(CC)(CC)C(=O)O)c3)n2)cc1` [Compound B, 2-[(E)-2-(3-(3-carboxy-3-ethylvalerylamino)phenyl)ethenyl]-6-[4-(4-butylphenyl)butoxy]methylpyridine], in data set [1], the “The inhibition” value worked out at 1.1e-10 g/mL. Moreover, the ED50 in data set [2] (setting [3]) was determined as 0.0054 mg/kg; in data set [2] (setting [4]), 0.8 mg/kg.

As to `CCC(CC)(CC(=O)Nc1cccc(/C=C/c2cccc(COCCCCc3ccccc3)n2)c1)C(=O)O` [Compound A, 2-[(E)-2-(3-(3-carboxy-3-ethylvalerylamino)phenyl)ethenyl]-6-(4-phenylbutoxy)methylpyridine 1/2 hydrate], the “The inhibition” value in data set [1] turned out to be 2.2e-09 g/mL. The ED50 in data set [2] (setting [3]) came out at 0.037 mg/kg; in data set [2] (setting [4]) it was 1.3 mg/kg.

For `CCC(CC)(CC(=O)Nc1cccc(/C=C/c2cccc(COCCCCc3ccc(F)cc3)n2)c1)C(=O)O` [Compound C, 2-[(E)-2-(3-(3-carboxy-3-ethylvalerylamino)phenyl)ethenyl]-6-[4-(4-fluorophenyl)butoxy]methylpyridine 1/2 hydrate], the “The inhibition” value in data set [1] stood at 2.5e-09 g/mL. Besides, the ED50 in data set [2] (setting [3]) came to 0.03 mg/kg; in data set [2] (setting [4]) it was 0.7 mg/kg.

Regarding `CCCc1ccc(CCCCOCc2cccc(/C=C/c3cccc(NC(=O)CC(CC)(CC)C(=O)O)c3)n2)cc1` [Compound E, 2-[(E)-2-(3-(3-carboxy-3-ethylvalerylamino)phenyl)ethenyl]-6-[4-(4-propylphenyl)butoxy]methylpyridine 1/4 hydrate], the “The inhibition” value in data set [1] is 6e-10 g/mL. The ED50 was 0.006 mg/kg in data set [2] (setting [3]) and 1.9 mg/kg in data set [2] (setting [4]).

Take `CCCCOc1ccc(CCCCOCc2cccc(/C=C/c3cccc(NC(=O)CC(CC)(CC)C(=O)O)c3)n2)cc1` [Compound J, 2-[(E)-2-(3-(3-carboxy-3-ethylvalerylamino)phenyl)ethenyl]-6-[4-(4-butoxyphenyl)butoxy]methylpyridine 3/2 hydrate]: the “The inhibition” value in data set [1] turned out to be 9e-11 g/mL. The ED50 in data set [2] (setting [3]) was 0.0046 mg/kg; in data set [2] (setting [4]), 0.46 mg/kg.

In the case of `CCC(CC)(CC(=O)Nc1cccc(/C=C/c2cccc(COCCCCc3ccc(OCCC(C)C)cc3)n2)c1)C(=O)O` [Compound K, 2-[(E)-2-(3-(3-carboxy-3-ethylvalerylamino)phenyl)ethenyl]-6-[4-(4-isopentyloxyphenyl)butoxy]methylpyridine 1/2 hydrate], in data set [1], the “The inhibition” value came out at 3.1e-10 g/mL. The ED50 in data set [2] (setting [3]) was 0.0036 mg/kg; in data set [2] (setting [4]), 0.25 mg/kg.

Turning to `CCC(CC)(CC(=O)Nc1cccc(/C=C/c2cccc(COCCCCc3ccc(CC(C)C)cc3)n2)c1)C(=O)O` [Compound G, 2-[(E)-2-(3-(3-carboxy-3-ethylvalerylamino)phenyl)ethenyl]-6-[4-(4-isobutylphenyl)butoxy]methylpyridine], the “The inhibition” value in data set [1] was determined as 3.6e-10 g/mL. Also, the ED50 was 0.0012 mg/kg in data set [2] (setting [3]) and 1.6 mg/kg in data set [2] (setting [4]).

These data come from patent US5198452A, “Styryl phridyl compounds and their pharmaceutical compositions” (Yoshitomi Pharmaceutical Industries, Ltd., priority 1991, dated 1993).
